Where two headings read alike, the source gives them in different places. Starred links: 1 amine or outer side, 2 acyl side, 3 side chain; linkers in the order of their positions; H or OH if unused. Positions of bridges follow the written chain, without caps; N, C: chain ends. Non-standard residues stand in square brackets, D forms with d. Residues, ends and D or L forms follow the SMILES beside them. *: point of attachment. NMeF = CN[C@@H](Cc1ccccc1)C(=O)O; NMeβAla = CN(CCC(=O)[*:2])[*:1]; NMeL = CN[C@@H](CC(C)C)C(=O)O; NMeV = CN[C@H](C(=O)O)C(C)C; NMeA = CN[C@@H](C)C(=O)O; Piperidide = C1CCN(*)CC1; dNMeA = CN[C@H](C)C(=O)O; Sar = CNCC(=O)O; tBu = CC(C)(C)*

Data set [1] can be described thus: PAMPA (parallel artificial membrane permeability assay). The conditions noted are these: PAMPA. In kind it is in vitro ADME. In outline: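 Artificial membrane was 10% (w/v) egg lecithin plus 0.5% (w/v) cholesterol in dodecane on a PVDF filter. A 10 mM DMSO stock was added at 0.5% (v/v) to donor buffer (50 mM MOPSO, pH 6.5, 5.0% glycocholic acid). After 18 h at 37 °C, LC/MS or LC/UV gave donor and acceptor levels for Pe.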
A general note: The PAMPA barrier holds no transporters, so it reflects passive diffusion.

Data set [2] in a line: Metabolic stability in human hepatic microsome. The class given is in vitro ADME. The conditions noted are these: microsomes.
Setting [3] is: membrane permeation rate (Pe), 50 mM MOPSO buffer pH 6.5 with 5.0% glycocholic acid, 37° C., 18 hours, read-out: iPAMPA Pe.
Setting [4] is: pH 7.4, human hepatic microsome, NADPH(+), read-out: CL NADPH(+).

Turning to `CC(C)C[C@H]1C(=O)N[C@@H](C(C)C)C(=O)N[C@H](C(=O)N(C)[C@@H](Cc2ccccc2)C(=O)N(C)[C@@H](Cc2ccccc2)C(=O)N[C@@H](C)C(=O)N2CCCCC2)CC(=O)N(C)CC(=O)N(C)[C@@H](CC(C)C)C(=O)N(C)[C@@H](Cc2ccccc2)C(=O)N[C@@H]([C@@H](C)O)C(=O)N(C)[C@@H](C)C(=O)N(C)CC(=O)N1C` [DP-407] ([Sar][NMeL][NMeF]T[NMeA][Sar][NMeL]VD[NMeF][NMeF]A-Piperidide; lactam N-9), the Papp at 18 hours, 50 µM in data set [1] (setting [3]) was 38 ×10⁻⁶ cm/s. For the same compound, the microsomal CLint at 1 uM in data set [2] (setting [4]) is 29 µL/min/mg.

In turn, `CC(C)C[C@@H]1NC(=O)[C@H](C)N(C)C(=O)[C@H](C(C)C)N(C)C(=O)CN(C)C(=O)[C@H](Cc2ccccc2)NC(=O)[C@H](C(C)C)N(C)C(=O)[C@H](C)N(C)C(=O)[C@H]([C@@H](C)O)NC(=O)[C@H](Cc2ccccc2)N(C)C(=O)[C@H](C)NC(=O)CCN(C)C(=O)C[C@@H](C(=O)N2CCCCC2)NC1=O` [DP-408] ([NMeβAla]A[NMeF]T[NMeA][NMeV]F[Sar][NMeV][NMeA]LD-Piperidide; lactam N-12) registered a Papp at 18 hours, 50 µM in data set [1] (pH 6.5) of 1.9 ×10⁻⁶ cm/s. Moreover, the microsomal CLint at 1 uM in data set [2] (human, pH 7.4, CL NADPH(+)) came out at 14 µL/min/mg.

For the compound `CC(C)C[C@H]1C(=O)N(C)[C@@H](C)C(=O)N[C@@H]([C@@H](C)O)C(=O)N(C)[C@@H](C)C(=O)N(C)[C@@H](C(C)C)C(=O)N[C@@H](COC(C)(C)C)C(=O)N[C@H](C(=O)N2CCCCC2)CC(=O)N(C)[C@H](C)C(=O)N(C)[C@@H](Cc2ccccc2)C(=O)N[C@@H](C)C(=O)N(C)[C@@H](C)C(=O)N[C@@H](Cc2ccccc2)C(=O)N1C` [DP-409] ([dNMeA][NMeF]A[NMeA]F[NMeL][NMeA]T[NMeA][NMeV]S(tBu)D-Piperidide; lactam N-12), the Papp at 18 hours, 50 µM in data set [1] (pH 6.5) turned out to be 13 ×10⁻⁶ cm/s. For the same compound, the microsomal CLint at 1 uM in data set [2] (human, pH 7.4, CL NADPH(+)) was found to be 28 µL/min/mg.

Regarding `CC(C)C[C@H]1C(=O)N(C)[C@@H](C(C)C)C(=O)N[C@@H](C(C)C)C(=O)N(C)CC(=O)N(C)[C@@H](C)C(=O)N[C@@H]([C@@H](C)O)C(=O)N(C)[C@@H](C)C(=O)N[C@H](C(=O)N2CCCCC2)CC(=O)N(C)[C@@H](C)C(=O)N(C)[C@@H](C)C(=O)N(C)[C@@H](Cc2ccccc2)C(=O)N[C@@H](C)C(=O)N1C` [DP-410] ([NMeA][NMeA][NMeF]A[NMeL][NMeV]V[Sar][NMeA]T[NMeA]D-Piperidide; lactam N-12), the Papp at 18 hours, 50 µM in data set [1] (setting [3]) is 1.4 ×10⁻⁶ cm/s. Besides, in data set [2] (setting [4]), the microsomal CLint at 1 uM is 19 µL/min/mg.

As for `CC[C@H](C)[C@@H]1NC(=O)[C@H](CC(C)C)NC(=O)CCN(C)C(=O)C[C@@H](C(=O)N2CCCCC2)NC(=O)[C@H](CC(C)C)NC(=O)[C@H](Cc2ccccc2)NC(=O)[C@H]([C@@H](C)O)NC(=O)[C@H](CC(C)C)NC(=O)[C@H](C(C)C)NC(=O)[C@H](CC(C)C)NC(=O)CN(C)C1=O` [DP-411] ([NMeβAla]LI[Sar]LVLTFLD-Piperidide; lactam N-11), the Papp at 18 hours, 50 µM in data set [1] (setting [3]) was found to be 8.4 ×10⁻⁶ cm/s. In addition, in data set [2] (setting [4]), the microsomal CLint at 1 uM is 114 µL/min/mg.

Consider `CC[C@H](C)[C@@H]1NC(=O)[C@H](CC(C)C)N(C)C(=O)[C@H](C(C)C)NC(=O)[C@H](CC(C)C)NC(=O)[C@H](CC(C)C)NC(=O)[C@H]([C@@H](C)O)NC(=O)[C@H](Cc2ccccc2)NC(=O)[C@H](CC(C)C)NC(=O)[C@H](C(C)C)N(C)C(=O)CCN(C)C(=O)C[C@@H](C(=O)N2CCCCC2)NC1=O` [DP-412] ([NMeβAla][NMeV]LFTLLV[NMeL]ID-Piperidide; lactam N-11), for which the Papp at 18 hours, 50 µM in data set [1] (setting [3]) worked out at 26 ×10⁻⁶ cm/s. Moreover, the microsomal CLint at 1 uM in data set [2] (setting [4]) came to 122 µL/min/mg.

With `CC[C@H](C)[C@@H]1NC(=O)[C@H](CC(C)C)N(C)C(=O)[C@H](C)NC(=O)CN(C)C(=O)[C@H](Cc2ccccc2)NC(=O)[C@H]([C@@H](C)O)NC(=O)[C@H](CC(C)C)N(C)C(=O)CCN(C)C(=O)C[C@@H](C(=O)N2CCCCC2)NC(=O)[C@H](CC(C)C)N(C)C(=O)[C@H](CC(C)C)N(C)C1=O` [DP-413] ([NMeβAla][NMeL]TF[Sar]A[NMeL]I[NMeL][NMeL]D-Piperidide; lactam N-11), the Papp at 18 hours, 50 µM in data set [1] (setting [3]) stood at 29 ×10⁻⁶ cm/s. The microsomal CLint at 1 uM in data set [2] (setting [4]) amounted to 68 µL/min/mg.

For the origin of these results see patent publication US9409952B2, “Peptide-compound cyclization method” (Chugai Seiyaku Kabushiki Kaisha, priority 2011, dated 2016).
